From patent US20120083522A1, “MODULATION OF INFLAMMATORY RESPONSES BY FACTOR XI” (Isis Pharmaceuitcals, inc., priority 2009, published 2012) come the findings set out here.

In the oligonucleotide strings, read from the 5' end, every base follows the letter of its sugar. An asterisk marks phosphorothioate; unmarked linkages are phosphodiester. Other units and linkages are bracketed, terminal groups are in braces. A string of capitals states the bases alone. e = 2'-O-(2-methoxyethyl) (MOE); [5mC] = 5-methylcytosine; d = 2'-deoxy (DNA)

Format in all cases: cell-based
Data set [1] deals with human Factor XI mRNA. The experiment in a line: Dose-dependent inhibition in HepB3 cells, electroporation (Example 7). The note with it: approx. 16 h. The protocol: The gapmers were also transfected via electroporation and their dose dependent inhibition of human Factor XI mRNA was measured. Cells were plated at a density of 20,000 cells per well and transfected via electroporation with 41.15 nM, 123.457 nM, 370.37 nM, 1111.11 nM, 3333.33 nM, and 10,000 nM concentrations of antisense oligonucleotide, as specified in Table 15. After a treatment period of approximately 16 hours, RNA was isolated from the cells and human Factor XI mRNA levels were measured by quantitative real-time PCR. Human Factor XI primer probe set RTS 2966 was used to measure mRNA levels. Factor XI mRNA levels were adjusted according to total RNA content, as measured by RIBOGREEN®. Results are presented as percent inhibition of human Factor XI, relative to untreated control cells.

Data set [2] concerns human Factor XI mRNA. The data set is described as follows: Dose-dependent inhibition and IC50 in HepG2 cells, microwalk gapmers, electroporation (Example 16). The protocol:
These gapmers were tested at various doses in HepG2 cells. Cells were plated at a density of 20,000 cells per well and transfected using electroporation with 375 nM, 750 nM, 1,500 nM, 3,000 nM, 6,000 nM and 12,000 nM concentrations of antisense oligonucleotide, as specified in Table 54. After a treatment period of approximately 16 hours, RNA was isolated from the cells and Factor XI mRNA levels were measured by quantitative real-time PCR. Human Factor XI primer probe set RTS 2966 was used to measure mRNA levels. Factor XI mRNA levels were adjusted according to total RNA content, as measured by RIBOGREEN. Results are presented as percent inhibition of Factor XI, relative to untreated control cells.
ISIS 416850, ISIS 416858, ISIS 445522, and ISIS 445531 (see Table 52 above) were re-tested in vitro along with the microwalk gapmers under the same conditions described above.
The chimeric antisense oligonucleotides in Table 53 were designed as 3-8-3 MOE, 4-8-4 MOE, 2-10-2 MOE, 3-10-3 MOE, or 4-10-4 MOE gapmers. The 3-8-3 gapmer is 14 nucleotides in length, wherein the central gap segment is comprised of eight 2′-deoxynucleotides and is flanked on both sides (in the 5′ and 3′ directions) by wings comprising three nucleotides each. The 4-8-4 gapmer is 16 nucleotides in length, wherein the central gap segment is comprised of eight 2′-deoxynucleotides and is flanked on both sides (in the 5′ and 3′ directions) by wings comprising four nucleotides each. The 2-10-2 gapmer is 14 nucleotides in length, wherein the central gap segment is comprised of ten 2′-deoxynucleotides and is flanked on both sides (in the 5′ and 3′ directions) by wings comprising two nucleotides each. The 3-10-3 gapmer is 16 nucleotides in length, wherein the central gap segment is comprised of ten 2′-deoxynucleotides and is flanked on both sides (in the 5′ and 3′ directions) by wings comprising three nucleotides each. The 4-10-4 gapmer is 18 nucleotides in length, wherein the central gap segment is comprised of ten 2′-deoxynucleotides and is flanked on both sides (in the 5′ and 3′ directions) by wings comprising four nucleotides each. For each of the motifs (3-8-3, 4-8-4, 2-10-2, 3-10-3, and 4-10-4), each nucleotide in the 5′ wing segment and each nucleotide in the 3′ wing segment has a 2′-MOE modification. The internucleoside linkages throughout each gapmer are phosphorothioate (P═S) linkages. All cytidine residues throughout each gapmer are 5-methylcytidines. “Human Target start site” indicates the 5′-most nucleotide to which the gapmer is targeted in the human sequence. “Human Target stop site” indicates the 3′-most nucleotide to which the gapmer is targeted in the human sequence. Each gapmer listed in Table 53 is targeted to SEQ ID NO: 1 (GENBANK Accession No. NM_000128.3). Each gapmer is Table 53 is also fully cross-reactive with the rhesus monkey Factor XI gene sequence, designated herein as SEQ ID NO: 274 (exons 1-15 GENBANK Accession No. NW—001118167.1). ‘Rhesus monkey start site’ indicates the 5′-most nucleotide to which the gapmer is targeted in the rhesus monkey sequence. ‘Rhesus monkey stop site’ indicates the 3′-most nucleotide to which the gapmer is targeted to the rhesus monkey sequence.
The first two listed gapmers in Table 54 are the original gapmers (ISIS 416850 and ISIS 416858) from which the remaining gapmers were designed via microwalk and are designated by an asterisk.

Data set [3] deals with human Factor XI mRNA. The experiment in a line: Dose-dependent inhibition and IC50 in HepG2 cells, electroporation (Example 15). The procedure, abridged: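 HepG2 cells were electroporated with antisense oligonucleotide at 123.46, 370.37, 1,111.11, 3,333.33 and 10,000 nM and harvested after about 16 h. Factor XI mRNA was quantified by qRT-PCR (primer probe set RTS 2966), normalized to RIBOGREEN total RNA, and expressed as percent inhibition versus untreated cells.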

“416825 (antisense GCCCTTCATGTCTAGGTCCA; 5-10-5 gapmer, wing sugar chemistry not given here, further chemistry not given here) [compound 416825]”: the “percent inhibition of human Factor XI mRNA” value in the data set on human Factor XI mRNA [1] (41.15 nM) is given as 32%; in the data set with human Factor XI mRNA [1] (123.457 nM), 40%; with human Factor XI mRNA [1] (370.37 nM), 48%; with human Factor XI mRNA [1] (1111.11 nM), 75%; with human Factor XI mRNA [1] (3333.33 nM), 90%; in the data set with human Factor XI mRNA [1] (10000 nM) it was 92%.
For the substance “416838 (antisense GCAACCGGGATGATGAGTGC; 5-10-5 gapmer, wing sugar chemistry not given here, further chemistry not given here) [compound 416838]”, the “percent inhibition of human Factor XI mRNA” value with human Factor XI mRNA [1] (41.15 nM) is 12%; in the data set on human Factor XI mRNA [1] (123.457 nM) it was 9%; in the data set on human Factor XI mRNA [1] (370.37 nM), 28%; with human Factor XI mRNA [1] (1111.11 nM), 40%; with human Factor XI mRNA [1] (3333.33 nM) it was 77%; in the data set on human Factor XI mRNA [1] (10000 nM), 88%.
“416850 (antisense TGCACAGTTTCTGGCAGGCC; 5-10-5 gapmer, wing sugar chemistry not given here, further chemistry not given here) [compound 416850]”: the “percent inhibition of Factor XI mRNA” value in the data set with human Factor XI mRNA [2] (electroporation, 375 nM) came out at 40%; in the data set on human Factor XI mRNA [2] (electroporation, 750 nM), 59%; in the data set on human Factor XI mRNA [2] (electroporation, 1,500 nM) it was 69%; with human Factor XI mRNA [2] (electroporation, 3,000 nM), 87%; in the data set with human Factor XI mRNA [2] (electroporation, 6,000 nM), 90%; in the data set on human Factor XI mRNA [2] (electroporation, 12,000 nM), 95%. Also, the “percent inhibition of Factor XI mRNA” value with human Factor XI mRNA [3] (electroporation, 123.47 nM) is 0%; with human Factor XI mRNA [3] (electroporation, 370.37 nM) it was 12%; in the data set with human Factor XI mRNA [3] (electroporation, 1,111.11 nM), 36%; in the data set on human Factor XI mRNA [3] (electroporation, 3,333.33 nM) it was 74%; in the data set with human Factor XI mRNA [3] (electroporation, 10,000.0 nM), 73%. The “percent inhibition of human Factor XI mRNA” value is 26% in the data set on human Factor XI mRNA [1] (41.15 nM); 38% with human Factor XI mRNA [1] (123.457 nM); 51% with human Factor XI mRNA [1] (370.37 nM); 73% with human Factor XI mRNA [1] (1111.11 nM); 90% in the data set on human Factor XI mRNA [1] (3333.33 nM); 95% in the data set with human Factor XI mRNA [1] (10000 nM).
On to “416864 (antisense GGCAGCGGACGGCATTGGTG; 5-10-5 gapmer, wing sugar chemistry not given here, further chemistry not given here) [compound 416864]”, for which the “percent inhibition of human Factor XI mRNA” value came out at 4% in the data set with human Factor XI mRNA [1] (41.15 nM); 3% in the data set with human Factor XI mRNA [1] (123.457 nM); 6% with human Factor XI mRNA [1] (370.37 nM); 35% in the data set on human Factor XI mRNA [1] (1111.11 nM); 75% with human Factor XI mRNA [1] (3333.33 nM); 87% with human Factor XI mRNA [1] (10000 nM).
Consider “416925 (antisense GGTGCACAGTTTCTGGCAGG; 3-14-3 chimeric gapmer, wing sugar chemistry not given here, further chemistry not given here) [compound 416925]”, for which the “percent inhibition of human Factor XI mRNA” value in the data set on human Factor XI mRNA [1] (41.15 nM) is recorded as 27%; in the data set on human Factor XI mRNA [1] (123.457 nM), 39%; in the data set with human Factor XI mRNA [1] (370.37 nM), 50%; in the data set on human Factor XI mRNA [1] (1111.11 nM), 73%; in the data set with human Factor XI mRNA [1] (3333.33 nM), 88%; in the data set on human Factor XI mRNA [1] (10000 nM), 96%.
Take “416999 (antisense GCACAGTTTCTGGCAGGCCT; 2-13-5 gapmer, wing sugar chemistry not given here, further chemistry not given here) [compound 416999]”: the “percent inhibition of human Factor XI mRNA” value was 31% with human Factor XI mRNA [1] (41.15 nM); 45% in the data set with human Factor XI mRNA [1] (123.457 nM); 62% in the data set with human Factor XI mRNA [1] (370.37 nM); 78% in the data set with human Factor XI mRNA [1] (1111.11 nM); 94% with human Factor XI mRNA [1] (3333.33 nM); 97% with human Factor XI mRNA [1] (10000 nM).
With “417002 (antisense GGTGCACAGTTTCTGGCAGG; 2-13-5 gapmer, wing sugar chemistry not given here, further chemistry not given here) [compound 417002]”, the “percent inhibition of human Factor XI mRNA” value in the data set on human Factor XI mRNA [1] (41.15 nM) was found to be 19%; in the data set on human Factor XI mRNA [1] (123.457 nM) it was 0%; in the data set with human Factor XI mRNA [1] (370.37 nM), 31%; with human Factor XI mRNA [1] (1111.11 nM), 47%; in the data set on human Factor XI mRNA [1] (3333.33 nM) it was 86%; with human Factor XI mRNA [1] (10000 nM), 93%.
Regarding “417003 (antisense TGGTGCACAGTTTCTGGCAG; 2-13-5 gapmer, wing sugar chemistry not given here, further chemistry not given here) [compound 417003]”, the “percent inhibition of human Factor XI mRNA” value in the data set with human Factor XI mRNA [1] (41.15 nM) is 31%; in the data set on human Factor XI mRNA [1] (123.457 nM), 0%; with human Factor XI mRNA [1] (370.37 nM), 15%; with human Factor XI mRNA [1] (1111.11 nM), 43%; with human Factor XI mRNA [1] (3333.33 nM), 84%; in the data set on human Factor XI mRNA [1] (10000 nM), 92%.
Consider “445522 (antisense eG*e[5mC]*eA*e[5mC]*eA*dG*dT*dT*dT*d[5mC]*dT*dG*dG*e[5mC]*eA*eG*eG*e[5mC]) [compound 445522]”, for which the “percent inhibition of Factor XI mRNA” value is on record as 59% in the data set on human Factor XI mRNA [2] (electroporation, 375 nM); 71% in the data set on human Factor XI mRNA [2] (electroporation, 750 nM); 83% in the data set on human Factor XI mRNA [2] (electroporation, 1,500 nM); 82% with human Factor XI mRNA [2] (electroporation, 3,000 nM); 81% in the data set on human Factor XI mRNA [2] (electroporation, 6,000 nM); 92% in the data set with human Factor XI mRNA [2] (electroporation, 12,000 nM). Besides, the “percent inhibition of Factor XI mRNA” value in the data set on human Factor XI mRNA [3] (electroporation, 123.47 nM) was determined as 0%; in the data set on human Factor XI mRNA [3] (electroporation, 370.37 nM), 0%; with human Factor XI mRNA [3] (electroporation, 1,111.11 nM), 44%; with human Factor XI mRNA [3] (electroporation, 3,333.33 nM), 63%; in the data set on human Factor XI mRNA [3] (electroporation, 10,000.0 nM), 74%.
Regarding “445531 (antisense eG*eG*e[5mC]*eA*eT*dT*dG*dG*dT*dG*d[5mC]*dA*d[5mC]*eA*eG*eT*eT*eT) [compound 445531]”, the “percent inhibition of Factor XI mRNA” value in the data set with human Factor XI mRNA [2] (electroporation, 375 nM) is 44%; in the data set on human Factor XI mRNA [2] (electroporation, 750 nM) it was 64%; with human Factor XI mRNA [2] (electroporation, 1,500 nM), 78%; in the data set with human Factor XI mRNA [2] (electroporation, 3,000 nM) it was 86%; with human Factor XI mRNA [2] (electroporation, 6,000 nM) it was 91%; in the data set on human Factor XI mRNA [2] (electroporation, 12,000 nM), 93%. For the same substance, the “percent inhibition of Factor XI mRNA” value in the data set with human Factor XI mRNA [3] (electroporation, 123.47 nM) was 8%; in the data set with human Factor XI mRNA [3] (electroporation, 370.37 nM), 16%; with human Factor XI mRNA [3] (electroporation, 1,111.11 nM), 52%; in the data set with human Factor XI mRNA [3] (electroporation, 3,333.33 nM), 61%; in the data set on human Factor XI mRNA [3] (electroporation, 10,000.0 nM), 77%.
